Measurements taken from ChEMBL document CHEMBL1146402, “New Oxygenated Sesquiterpenes from the Indonesian Soft Coral Nephthea chabrolii” (J Nat Prod, 1997).
In brackets after ≈: the same amount, converted by molar mass.

Key:
Spodoptera littoralis [1] = experiment: Insecticidal activity in Spodoptera littoralis assessed as inhibition of larval growth after 6 days by chronic feeding experiment; type: functional, organism-based
Spodoptera littoralis [2] = experiment: Insecticidal activity in Spodoptera littoralis assessed as inhibition of larval growth at 530 ppm after 6 days by chronic feeding experiment; type: functional; settings: 144 h

**Q.** For CC1=C2C[C@H](C(C)(C)O)CC[C@H](C)[C@@H]2CC1=O [HYDROXYCOLORENONE], which EC50 (Spodoptera littoralis [1]) is on record?
**A.** 8.8 ppm

**Q.** What about the LC50 (Spodoptera littoralis [1]; Spodoptera littoralis, 144 h) of the same compound?
**A.** 453 µg/mL (≈ 1920 µM)

**Q.** What about the inhibition at 530 ppm (Spodoptera littoralis [2]) of the same compound?
**A.** 90%
